In ChEMBL document CHEMBL1795329, “QSPR modeling of octanol/water partition coefficient for vitamins by optimal descriptors calculated with SMILES” (Eur J Med Chem, 2008):

assay: physchem; conditions: octanol/water

SMILES | logP
C=CCC | 2.27
C1C2CC3CC1CC(C2)C3 | 3.98
Clc1cccc(Cl)c1-c1ccccc1 | 5.46
CCCCCCCCCCC | 6.51
c1ccc2c(c1)ccc1cc3c(ccc4ccccc43)cc12 | 6.84
Clc1cc(Cl)c(-c2ccccc2)cc1Cl | 6.17
Clc1cc(-c2ccccc2)c(Cl)c(Cl)c1Cl | 6.88
CSC | 0.842
CCCCCCCl | 3.58
CCCCl | 1.99
Cl/C=C/Cl | 1.51
c1ccc2ccccc2c1 | 3.32
CC(C)CCC[C@@H](C)[C@H]1CC[C@H]2C3=CC=C4C[C@@H](O)CC[C@]4(C)[C@H]3CC[C@]12C | 8.65
Cc1cc(C)c(C)c(C)c1 | 4.74
Cc1cc(C)c(C)cc1C | 4.74
Brc1ccccc1Br | 3.59
CCCCCCCCl | 4.11
Clc1ccc(-c2ccccc2Cl)c(Cl)c1 | 6.17
CC(C)CC(C)(C)C | 4.54
Cc1cc2ccccc2cc1C | 4.61
Clc1cc(Cl)c(-c2ccccc2)c(Cl)c1 | 6.17
Clc1ccc(Cl)c(-c2ccccc2)c1 | 5.46
Cc1ccccc1Cl | 3.5
Cc1ccc2cc3ccccc3cc2c1 | 5.14

SMILES | logP
CCCCC(C)C | 4.27
Cc1ccc(Cl)cc1 | 3.5
Cc1cc2ccccc2c2ccc3ccccc3c12 | 6.31
c1cc2c3c(cccc3c1)CC2 | 4.07
c1ccc2cc3cc4ccccc4cc3cc2c1 | 5.66
Cc1ccc(C)c(C)c1C | 4.74
Cc1cccc(C)c1C | 4.09
Cc1ccc(C)c(C)c1 | 4.09
Cc1cc(C)cc(C)c1 | 4.09
Cc1ccc(C)c2c(C)cccc12 | 5.26
Cc1cccc2c1Cc1ccccc1-2 | 4.87
Cc1c2ccccc2cc2ccc3ccccc3c12 | 6.31
Clc1cc(Cl)c(-c2ccccc2Cl)cc1Cl | 6.88
Clc1ccc2c(ccc3ccccc32)c1 | 5.2
CCC(C)C | 3.21
Cc1ccc2c(ccc3ccccc32)c1 | 5.14
Cc1cccc(Cl)c1 | 3.5
Cc1c(C)c2c3ccccc3ccc2c2ccccc12 | 6.96
Cc1cc2c3ccccc3ccc2c2ccccc12 | 6.31
Cc1c2ccccc2cc2ccccc12 | 5.14
c1ccc2c(c1)c1ccccc1c1ccccc21 | 5.66
c1ccc2cc3c(ccc4ccccc43)cc2c1 | 5.66
c1cc2ccc3ccc4ccc5cccc6c(c1)c2c3c4c56 | 6.58
Clc1ccccc1-c1ccccc1 | 4.74

SMILES | logP
Cc1ccc2cc(C)ccc2c1 | 4.61
Clc1cccc2ccccc12 | 4.03
Brc1ccc(Br)cc1 | 3.87
Clc1ccc(-c2ccccc2Cl)cc1 | 5.46
Cc1ccc2ccccc2c1 | 3.96
c1ccc2c(c1)ccc1cc3ccc4ccccc4c3cc12 | 6.84
CCCc1ccccc1 | 3.85
C=CCCC | 2.79
Clc1ccc(Cl)c(Cl)c1 | 4.28
CCCC(C)C | 3.74
c1ccc2c(c1)cc1ccc3cccc4ccc2c1c34 | 6.12
CCc1cccc2ccccc12 | 4.49
Cc1cccc2ccc3cc4ccccc4cc3c12 | 6.31
CCCCCCl | 3.05
Cc1ccc(C)c2ccccc12 | 4.61
Clc1ccc2ccccc2c1 | 4.03
Cc1cccc2ccccc12 | 3.96
Cc1c2ccccc2cc2c1ccc1ccccc12 | 6.31
Cc1ccc2c3ccccc3c3cccc4ccc1c2c43 | 6.77
CCc1c2ccccc2cc2c1ccc1ccccc12 | 6.84
c1cc2cccc3c4cccc5cccc(c(c1)c23)c54 | 6.12
Cc1cccc2c(C)cccc12 | 4.61
Clc1cc(Cl)c(Cl)c(Cl)c1 | 4.99
c1ccc(CCc2ccccc2)cc1 | 4.89

SMILES | logP
Clc1cccc(Cl)c1 | 3.57
Clc1cc(Cl)c(Cl)cc1Cl | 4.74
Clc1cccc(Cl)c1Cl | 4.28
c1ccc2c(c1)ccc1ccccc12 | 4.49
Cc1cc(C)c(C)c(C)c1C | 5.39
Cc1c2ccccc2c(C)c2ccccc12 | 5.79
c1ccc2c(c1)ccc1c3ccccc3ccc21 | 5.66
ClC(Cl)C(Cl)Cl [1,1,2,2-TETRACHLOROETHANE] | 2.64
BrCCBr [1,2-DIBROMOETHANE] | 1.74
Clc1ccccc1Cl [1,2-DICHLOROBENZENE] | 3.57
ClCCCl [1,2-DICHLOROETHANE] | 1.46
Clc1cc(Cl)cc(Cl)c1 [1,3,5-TRICHLOROBENZENE] | 4.28
Clc1ccc(Cl)cc1 [1,4-DICHLOROBENZENE] | 3.57
CC(=O)Oc1cc(C)c(OC(C)=O)c2ccccc12 [ACETOMENAPHTHONE] | 3.59
Nc1ncnc2c1ncn2[C@@H]1O[C@H](COP(=O)(O)O)[C@@H](O)[C@H]1O [ADENOSINE PHOSPHATE] | -1.68
c1ccc2c(c1)Cc1c-2ccc2ccccc12 [BENZO(A)FLUORENE] | 5.4
c1ccc2c3c(ccc2c1)-c1cccc2cccc-3c12 [BENZO(J)FLUORANTHENE] | 6.12
c1ccc2cc3c(cc2c1)-c1cccc2cccc-3c12 [BENZO(K)FLUORANTHENE] | 6.12
c1ccc2c(c1)-c1cccc3c1c-2cc1ccccc13 [BENZO[B]FLUORANTHENE] | 6.12
c1ccc2c(c1)Cc1cc3ccccc3cc1-2 [BENZO[B]FLUORENE] | 5.4
c1ccc2c(c1)c1cccc3ccc4cccc2c4c31 [BENZO[E]PYRENE] | 6.12
O=C(O)CCCC[C@@H]1SC[C@@H]2NC(=O)N[C@@H]21 [BIOTIN] | 0.39
c1ccc(-c2ccccc2)cc1 [BIPHENYL] | 4.03
CCCC [BUTANE] | 2.81

SMILES | logP
CCCCCl [BUTYL CHLORIDE] | 2.52
CCCCc1ccccc1 [BUTYLBENZYL] | 4.74
ClC(Cl)(Cl)Cl [CARBON TETRACHLORIDE] | 2.88
Clc1ccccc1 [CHLOROBENZENE] | 2.85
c1cc2c3c(c4ccc5ccccc5c4cc3c1)CC2 [CHOLANTHRENE] | 6.42
C1CCCCCC1 [CYCLOHEPTANE] | 3.91
C1CCCCC1 [CYCLOHEXANE] | 3.35
C1=CCCCC1 [CYCLOHEXENE] | 2.81
C1CCCCCCC1 [CYCLOOCTANE] | 4.47
C1CCCC1 [CYCLOPENTANE] | 2.79
C1=CCCC1 [CYCLOPENTENE] | 2.25
CCCCCCCCCC [DECANE] | 5.98
CCSCC [DIETHYL SULFIDE] | 1.9
CCCl [ETHYL CHLORIDE] | 1.47
CCc1ccccc1 [ETHYLBENZENE] | 3.32
c1ccc2c(c1)-c1cccc3cccc-2c13 [FLUORANTHENE] | 4.95
c1ccc2c(c1)Cc1ccccc1-2 [FLUORENE] | 4.22
Nc1nc2ncc(CNc3ccc(C(=O)N[C@@H](CCC(=O)O)C(=O)O)cc3)nc2c(=O)[nH]1 [FOLIC ACID] | -2.81
CCCCCCC [HEPTANE] | 4.4
Cc1c(C)c(C)c(C)c(C)c1C [HEXAMETHYLBENZENE] | 6.04
CCCCCC [HEXANE] | 3.87
CC(C)c1ccccc1 [ISOPROPYLBENZENE] | 3.72
Cc1cccc(C)c1 [M-XYLENE] | 3.44
C[S+](C)CC[C@H](N)C(=O)O [METHYLMETHIONINE SULFONIUM CHLORIDE] | 0.28

SMILES | logP
CCCCCCCCC [NONANE] | 5.46
Cc1ccccc1C [O-XYLENE] | 3.44
CCCCCCCC [OCTANE] | 4.93
Cc1ccc(C(C)C)cc1 [P-CYMENE] | 4.37
Cc1ccc(C)cc1 [P-XYLENE] | 3.44
CC(C)(CO)[C@@H](O)C(=O)NCCC(=O)O [PANTOTHENIC ACID] | -1.69
Clc1cc(Cl)c(Cl)c(Cl)c1Cl [PENTACHLOROBENZENE] | 5.71
CCCCC [PENTANE] | 3.34
Clc1c(Cl)c(Cl)c(Cl)c(Cl)c1Cl [PERCHLOROBENZENE] | 6.42
c1cc2ccc3cccc4ccc(c1)c2c34 [PYRENE] | 4.95
ClC(Cl)=C(Cl)Cl [TETRACHLOROETHYLENE] | 3.02
Cc1ncc(C[n+]2csc(CCO)c2C)c(N)n1 [THIAMINE ION] | -3.93
CC(Cl)(Cl)Cl [TRICHLOROETHANE] | 2.48
ClC=C(Cl)Cl [TRICHLOROETHYLENE] | 2.27
FC(Cl)(Cl)Cl [TRICHLOROMONOFLUOROMETHANE] | 2.44
CC1=C(/C=C/C(C)=C/C=C/C(C)=C/CO)C(C)(C)CC=C1 [VITAMIN A2] | 7.41
NC1=C2NCN=C2N=CN1 [VITAMIN B4] | -0.09
Cc1cc(O)c2ccccc2c1O [VITAMIN K3H2] | 2.76
CCC(C)(C)c1ccccc1 [tert-Amylbenzene] | 4.65
CC(C)(C)c1ccccc1 [tert-Butylbenzene] | 4.12

assay: not given; conditions: octanol/water

logP | SMILES
10.44 | C=C1CC[C@H](O)C/C1=C/C=C1\CCC[C@]2(C)[C@@H]([C@H](C)/C=C/[C@H](C)C(C)C)CC[C@@H]12 [ERGOCALCIFEROL]
11.71 | CC1=C(C/C=C(\C)CCC[C@H](C)CCC[C@H](C)CCCC(C)C)C(=O)c2ccccc2C1=O [PHYTONADIONE]
-2.02 | C[C@@H]1O[C@@H](OC[C@H]2O[C@@H](Oc3c(-c4ccc(O)c(O)c4)oc4cc(O)cc(O)c4c3=O)[C@H](O)[C@@H](O)[C@@H]2O)[C@H](O)[C@H](O)[C@H]1O [RUTIN]

SMILES | logP
C=C1CC[C@H](O)C/C1=C/C=C1\CCC[C@]2(C)[C@@H]([C@H](C)CCCC(C)C)CC[C@@H]12 [CHOLECALCIFEROL] | 10.24
ClC(Cl)C(Cl)(Cl)Cl [PENTACHLOROETHANE] | 3.627
